From ChEMBL document CHEMBL5465560, “Selectivity Literature for EUbOPEN Chemogenomic Library” (2024)

How the values were obtained:
[1] = molecular target: T1, Cyclin-dependent kinase-like 5 (Homo sapiens) (UniProt O76039); test: Selectivity interaction (KinomeScan (DiscoverX)) EUB0000229b CDKL5; conditions: at 10 µM
T1 sequence (whole entry): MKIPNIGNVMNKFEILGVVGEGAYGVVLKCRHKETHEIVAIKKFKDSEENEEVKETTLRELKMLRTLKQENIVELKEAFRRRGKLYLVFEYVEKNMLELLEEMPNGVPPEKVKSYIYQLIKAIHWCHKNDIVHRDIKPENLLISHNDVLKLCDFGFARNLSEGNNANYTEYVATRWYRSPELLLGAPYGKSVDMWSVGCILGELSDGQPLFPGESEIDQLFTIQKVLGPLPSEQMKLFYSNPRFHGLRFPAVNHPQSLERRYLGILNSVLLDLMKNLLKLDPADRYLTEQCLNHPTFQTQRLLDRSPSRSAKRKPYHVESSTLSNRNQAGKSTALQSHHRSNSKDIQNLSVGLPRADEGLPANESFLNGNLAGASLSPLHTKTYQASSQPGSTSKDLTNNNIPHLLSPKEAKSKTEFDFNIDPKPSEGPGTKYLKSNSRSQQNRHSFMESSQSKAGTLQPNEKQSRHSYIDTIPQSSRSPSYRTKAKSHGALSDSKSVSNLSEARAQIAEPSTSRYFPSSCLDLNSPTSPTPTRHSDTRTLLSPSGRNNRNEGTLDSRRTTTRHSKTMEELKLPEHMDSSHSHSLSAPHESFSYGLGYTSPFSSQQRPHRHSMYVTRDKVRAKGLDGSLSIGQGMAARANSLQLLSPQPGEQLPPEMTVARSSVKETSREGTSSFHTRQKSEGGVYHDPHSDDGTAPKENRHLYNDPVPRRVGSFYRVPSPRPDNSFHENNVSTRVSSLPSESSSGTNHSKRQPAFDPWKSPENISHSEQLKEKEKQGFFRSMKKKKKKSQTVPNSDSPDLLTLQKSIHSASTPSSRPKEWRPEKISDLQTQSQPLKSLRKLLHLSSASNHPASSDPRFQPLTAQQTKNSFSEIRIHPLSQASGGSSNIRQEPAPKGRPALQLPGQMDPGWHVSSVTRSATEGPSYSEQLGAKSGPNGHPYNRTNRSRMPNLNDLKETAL

[2] = molecular target: Eukaryotic translation initiation factor 2-alpha kinase 1 (Homo sapiens) (UniProt Q9BQI3); test: Selectivity interaction (KinomeScan (DiscoverX)) EUB0000229b EIF2AK1; conditions: at 10 µM
[3] = molecular target: Serine/threonine-protein kinase 38-like (Homo sapiens) (UniProt Q9Y2H1); test: Selectivity interaction (KinomeScan (DiscoverX)) EUB0000229b STK38L; conditions: at 10 µM
[4] = molecular target: T2, Tyrosine-protein kinase Mer (Homo sapiens) (UniProt Q12866); test: Selectivity interaction (KinomeScan (DiscoverX)) EUB0000045b MERTK
T2 sequence (whole entry): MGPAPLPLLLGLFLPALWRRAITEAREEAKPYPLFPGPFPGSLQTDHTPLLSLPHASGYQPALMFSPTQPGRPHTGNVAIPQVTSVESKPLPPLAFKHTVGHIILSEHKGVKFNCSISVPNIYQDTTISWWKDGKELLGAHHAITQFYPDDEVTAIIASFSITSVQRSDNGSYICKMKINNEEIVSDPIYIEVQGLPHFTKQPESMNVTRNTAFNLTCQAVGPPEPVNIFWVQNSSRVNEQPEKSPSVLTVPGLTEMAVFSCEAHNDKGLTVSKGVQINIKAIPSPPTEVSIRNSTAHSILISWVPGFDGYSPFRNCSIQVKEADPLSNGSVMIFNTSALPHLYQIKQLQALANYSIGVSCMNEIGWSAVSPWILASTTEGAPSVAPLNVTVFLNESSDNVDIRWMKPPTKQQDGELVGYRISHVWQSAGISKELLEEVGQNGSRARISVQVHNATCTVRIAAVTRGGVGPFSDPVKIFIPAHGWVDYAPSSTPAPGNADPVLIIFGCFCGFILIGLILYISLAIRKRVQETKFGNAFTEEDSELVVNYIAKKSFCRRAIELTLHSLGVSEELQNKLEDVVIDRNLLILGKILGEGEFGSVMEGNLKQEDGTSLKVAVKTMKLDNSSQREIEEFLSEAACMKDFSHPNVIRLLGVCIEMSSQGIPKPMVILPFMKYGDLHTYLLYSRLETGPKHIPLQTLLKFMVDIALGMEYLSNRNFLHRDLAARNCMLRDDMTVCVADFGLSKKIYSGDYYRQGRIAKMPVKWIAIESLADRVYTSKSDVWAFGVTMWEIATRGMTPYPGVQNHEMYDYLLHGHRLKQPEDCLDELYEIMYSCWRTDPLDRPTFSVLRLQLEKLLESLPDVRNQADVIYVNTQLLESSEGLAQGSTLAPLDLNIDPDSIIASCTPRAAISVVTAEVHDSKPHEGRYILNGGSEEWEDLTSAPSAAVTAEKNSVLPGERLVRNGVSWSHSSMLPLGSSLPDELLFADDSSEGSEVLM

[5] = molecular target: Receptor-type tyrosine-protein kinase FLT3 (Homo sapiens) (UniProt P36888); test: Selectivity interaction (KinomeScan (DiscoverX)) EUB0000695a FLT3; conditions: at 100 nM
[6] = molecular target: DNA (cytosine-5)-methyltransferase 3B (Homo sapiens) (UniProt Q9UBC3); test: Selectivity interaction (Transferase panel (protein, RNA, and DNA methyltransferases. and EP300 (acetyltransferase))) EUB0000270b DNMT3B
[7] = molecular target: Tyrosine-protein kinase Fyn (Homo sapiens) (UniProt P06241); conditions: at 10 µM
[8] = molecular target: Epithelial discoidin domain-containing receptor 1 (Homo sapiens) (UniProt Q08345); test: Selectivity interaction (KinomeScan (DiscoverX)) EUB0001049a DDR1; conditions: at 1 µM
[9] = molecular target: T3, Mitogen-activated protein kinase kinase kinase 1 (Homo sapiens, UniProt Q13233); test: Selectivity interaction (KinomeScan (DiscoverX)) EUB0001049a MAP3K1; conditions: at 1 µM
[10] = molecular target: Serine/threonine-protein kinase Nek7 (Homo sapiens) (UniProt Q8TDX7); test: Selectivity interaction (ProQinase) EUB0000171b NEK7
[11] = molecular target: Serine/threonine-protein kinase 38-like (Homo sapiens) (UniProt Q9Y2H1); test: Selectivity interaction (ActivX KiNativ screen (ex vivo kinase selectivity in human PBMCs)) EUB0001619a STK38L; assay type: cell-based; conditions: PBMC, at 1 µM
[12] = molecular target: Phosphatidylinositol 4,5-bisphosphate 3-kinase catalytic subunit gamma isoform (Homo sapiens) (UniProt P48736); test: Selectivity interaction (KinomeScan (DiscoverX)) EUB0000618a PIK3CG; conditions: at 10 µM
[13] = molecular target: T3, Mitogen-activated protein kinase kinase kinase 1; test: Selectivity interaction (ActivX KiNativ screen (kinase selectivity in THP-1 cell lysates)) EUB0000639a MAP3K1; assay type: subcellular; conditions: lysate
[14] = molecular target: Ribosomal protein S6 kinase alpha-5 (Homo sapiens) (UniProt O75582); conditions: at 10 µM
Ribosomal protein S6 kinase alpha-5 (Homo sapiens), sequence (O75582 whole entry, looked up): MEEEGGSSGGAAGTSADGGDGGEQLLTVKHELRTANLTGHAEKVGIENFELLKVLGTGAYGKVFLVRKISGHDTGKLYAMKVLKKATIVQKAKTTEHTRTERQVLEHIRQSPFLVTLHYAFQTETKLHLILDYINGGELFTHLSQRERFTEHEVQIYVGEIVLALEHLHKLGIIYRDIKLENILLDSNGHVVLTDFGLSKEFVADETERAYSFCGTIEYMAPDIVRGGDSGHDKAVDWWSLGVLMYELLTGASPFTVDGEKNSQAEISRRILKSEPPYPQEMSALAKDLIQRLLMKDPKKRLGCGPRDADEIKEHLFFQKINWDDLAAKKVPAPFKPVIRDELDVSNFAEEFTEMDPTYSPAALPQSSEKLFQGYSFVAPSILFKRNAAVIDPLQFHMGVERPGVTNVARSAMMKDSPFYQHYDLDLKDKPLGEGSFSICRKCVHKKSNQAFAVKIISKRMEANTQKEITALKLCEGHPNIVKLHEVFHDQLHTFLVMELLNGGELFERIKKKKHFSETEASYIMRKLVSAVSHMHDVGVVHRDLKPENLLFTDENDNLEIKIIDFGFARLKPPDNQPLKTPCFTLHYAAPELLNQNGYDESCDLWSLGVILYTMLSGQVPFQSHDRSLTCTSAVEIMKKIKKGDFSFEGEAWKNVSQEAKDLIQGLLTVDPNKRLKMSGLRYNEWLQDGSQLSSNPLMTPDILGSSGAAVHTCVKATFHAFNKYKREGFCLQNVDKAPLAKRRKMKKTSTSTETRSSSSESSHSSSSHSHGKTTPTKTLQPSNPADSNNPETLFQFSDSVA

T3 sequence (Q13233 whole entry): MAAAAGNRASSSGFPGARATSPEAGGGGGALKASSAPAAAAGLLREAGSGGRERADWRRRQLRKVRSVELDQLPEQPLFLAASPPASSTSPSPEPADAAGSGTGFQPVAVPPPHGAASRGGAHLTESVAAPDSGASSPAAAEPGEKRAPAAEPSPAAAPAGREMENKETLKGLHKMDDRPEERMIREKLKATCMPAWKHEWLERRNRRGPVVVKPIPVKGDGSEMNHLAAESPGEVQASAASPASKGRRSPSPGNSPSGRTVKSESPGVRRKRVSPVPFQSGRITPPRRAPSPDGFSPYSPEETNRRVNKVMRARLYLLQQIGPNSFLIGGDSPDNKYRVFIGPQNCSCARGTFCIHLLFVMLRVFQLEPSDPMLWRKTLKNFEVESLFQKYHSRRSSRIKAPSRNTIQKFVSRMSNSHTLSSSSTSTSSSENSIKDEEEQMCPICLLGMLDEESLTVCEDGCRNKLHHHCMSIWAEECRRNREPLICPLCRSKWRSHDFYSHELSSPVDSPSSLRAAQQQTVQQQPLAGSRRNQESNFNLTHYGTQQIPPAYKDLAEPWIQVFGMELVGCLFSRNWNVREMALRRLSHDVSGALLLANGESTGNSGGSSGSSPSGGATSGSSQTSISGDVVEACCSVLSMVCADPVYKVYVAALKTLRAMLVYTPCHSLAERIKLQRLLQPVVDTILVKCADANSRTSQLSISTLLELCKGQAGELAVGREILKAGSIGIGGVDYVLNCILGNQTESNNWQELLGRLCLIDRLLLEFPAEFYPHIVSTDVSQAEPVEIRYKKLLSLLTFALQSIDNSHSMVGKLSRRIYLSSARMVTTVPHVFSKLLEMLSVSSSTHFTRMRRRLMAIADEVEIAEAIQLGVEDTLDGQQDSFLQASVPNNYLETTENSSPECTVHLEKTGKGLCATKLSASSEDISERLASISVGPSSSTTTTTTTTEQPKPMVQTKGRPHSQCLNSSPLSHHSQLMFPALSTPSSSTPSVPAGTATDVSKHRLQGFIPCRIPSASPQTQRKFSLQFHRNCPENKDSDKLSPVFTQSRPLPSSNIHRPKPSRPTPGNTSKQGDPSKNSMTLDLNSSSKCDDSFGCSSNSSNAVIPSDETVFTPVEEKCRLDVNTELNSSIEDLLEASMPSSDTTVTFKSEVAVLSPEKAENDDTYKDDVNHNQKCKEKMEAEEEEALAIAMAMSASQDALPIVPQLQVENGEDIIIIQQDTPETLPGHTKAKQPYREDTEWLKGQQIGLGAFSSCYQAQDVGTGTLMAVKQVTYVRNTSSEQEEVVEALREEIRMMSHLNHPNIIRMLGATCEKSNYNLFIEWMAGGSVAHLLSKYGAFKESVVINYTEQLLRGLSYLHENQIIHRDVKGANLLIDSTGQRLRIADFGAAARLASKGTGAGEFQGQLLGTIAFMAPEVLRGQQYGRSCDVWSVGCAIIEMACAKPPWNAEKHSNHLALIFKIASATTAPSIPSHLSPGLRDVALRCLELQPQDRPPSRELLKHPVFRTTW
Serine/threonine-protein kinase Nek7 (Homo sapiens), sequence (Q8TDX7 whole entry, looked up): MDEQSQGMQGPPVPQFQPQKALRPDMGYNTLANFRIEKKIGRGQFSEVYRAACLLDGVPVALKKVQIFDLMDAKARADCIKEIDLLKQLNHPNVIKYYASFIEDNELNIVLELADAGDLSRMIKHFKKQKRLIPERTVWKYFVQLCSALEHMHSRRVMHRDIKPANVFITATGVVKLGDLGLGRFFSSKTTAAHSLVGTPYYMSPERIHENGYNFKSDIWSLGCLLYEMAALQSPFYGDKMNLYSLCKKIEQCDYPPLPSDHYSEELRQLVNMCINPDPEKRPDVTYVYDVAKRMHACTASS
Serine/threonine-protein kinase 38-like (Homo sapiens), sequence (Q9Y2H1 2-464 limits assumed): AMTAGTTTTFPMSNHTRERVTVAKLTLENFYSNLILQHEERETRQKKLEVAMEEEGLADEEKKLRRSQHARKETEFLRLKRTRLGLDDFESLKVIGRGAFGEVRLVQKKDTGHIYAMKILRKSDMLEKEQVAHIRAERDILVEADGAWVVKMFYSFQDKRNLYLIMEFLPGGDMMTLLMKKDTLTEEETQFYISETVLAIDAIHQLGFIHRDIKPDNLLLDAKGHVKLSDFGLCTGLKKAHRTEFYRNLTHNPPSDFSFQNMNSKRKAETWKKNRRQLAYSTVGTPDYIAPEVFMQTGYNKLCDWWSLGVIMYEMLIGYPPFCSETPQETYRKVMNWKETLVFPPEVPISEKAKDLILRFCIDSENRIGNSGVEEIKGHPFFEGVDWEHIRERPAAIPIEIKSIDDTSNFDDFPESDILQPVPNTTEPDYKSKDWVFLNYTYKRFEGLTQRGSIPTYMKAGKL
Tyrosine-protein kinase Fyn (Homo sapiens), sequence (P06241 2-537 limits assumed): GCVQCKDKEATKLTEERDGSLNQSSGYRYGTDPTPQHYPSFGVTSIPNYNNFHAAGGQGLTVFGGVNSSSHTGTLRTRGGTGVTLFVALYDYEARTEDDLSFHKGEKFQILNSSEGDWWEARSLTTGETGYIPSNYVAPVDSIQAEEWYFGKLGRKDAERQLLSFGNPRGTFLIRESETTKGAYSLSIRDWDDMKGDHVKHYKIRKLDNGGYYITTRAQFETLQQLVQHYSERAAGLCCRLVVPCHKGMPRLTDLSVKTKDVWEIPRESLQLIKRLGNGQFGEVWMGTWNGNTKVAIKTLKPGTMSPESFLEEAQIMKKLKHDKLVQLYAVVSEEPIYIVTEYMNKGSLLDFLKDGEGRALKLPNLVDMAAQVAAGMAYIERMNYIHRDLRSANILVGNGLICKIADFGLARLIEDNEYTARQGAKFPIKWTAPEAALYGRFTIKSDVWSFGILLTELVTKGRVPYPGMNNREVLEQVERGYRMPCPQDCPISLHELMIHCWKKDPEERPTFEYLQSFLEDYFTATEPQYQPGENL
Receptor-type tyrosine-protein kinase FLT3 (Homo sapiens), sequence (P36888 whole entry): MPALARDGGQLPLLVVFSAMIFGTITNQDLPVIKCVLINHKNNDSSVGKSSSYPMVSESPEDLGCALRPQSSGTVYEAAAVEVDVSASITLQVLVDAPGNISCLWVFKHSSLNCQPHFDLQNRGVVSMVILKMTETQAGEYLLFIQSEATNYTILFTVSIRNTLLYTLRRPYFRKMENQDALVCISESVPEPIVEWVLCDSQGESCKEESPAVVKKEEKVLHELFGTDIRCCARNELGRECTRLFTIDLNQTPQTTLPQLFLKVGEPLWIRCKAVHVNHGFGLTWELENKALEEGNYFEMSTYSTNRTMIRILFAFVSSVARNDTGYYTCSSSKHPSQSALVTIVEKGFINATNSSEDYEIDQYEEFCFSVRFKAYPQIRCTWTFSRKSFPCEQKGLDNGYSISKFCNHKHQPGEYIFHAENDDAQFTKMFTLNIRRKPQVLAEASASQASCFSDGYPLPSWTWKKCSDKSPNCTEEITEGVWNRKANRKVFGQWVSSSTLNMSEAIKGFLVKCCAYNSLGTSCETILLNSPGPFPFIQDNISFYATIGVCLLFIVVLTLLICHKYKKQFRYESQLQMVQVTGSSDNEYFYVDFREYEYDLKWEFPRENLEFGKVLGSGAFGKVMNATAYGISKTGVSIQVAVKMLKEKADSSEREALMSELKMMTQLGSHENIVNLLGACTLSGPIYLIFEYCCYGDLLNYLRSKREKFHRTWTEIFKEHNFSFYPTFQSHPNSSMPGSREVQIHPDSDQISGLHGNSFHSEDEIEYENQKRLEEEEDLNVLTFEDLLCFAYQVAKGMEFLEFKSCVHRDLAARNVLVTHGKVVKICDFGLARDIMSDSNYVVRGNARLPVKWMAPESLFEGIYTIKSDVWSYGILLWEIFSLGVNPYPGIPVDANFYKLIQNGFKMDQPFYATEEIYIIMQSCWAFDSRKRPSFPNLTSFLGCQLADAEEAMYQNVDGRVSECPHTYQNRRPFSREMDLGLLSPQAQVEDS

COc1cc(N(C)c2ccnc3ccc(C(F)(F)F)cc23)cc(OC)c1OC
% binding [1]: 86% | % binding [2]: 74% | % binding [3]: 87%

C=CC(=O)Nc1cc(-n2c(=O)ccc3cnc4ccc(-c5ccc(NS(C)(=O)=O)cc5)cc4c32)ccc1C
% of control ([4]; at 1 µM): 72% | % of control ([4]; at 10 µM): 100%

Cc1cc(F)c(C(=O)Nc2cccc(-c3nncn3C(C)C)n2)cc1-n1cnc(C2CC2)c1
% of control [5]: 100%

Cc1cc(CN)cc(C)c1-c1ncn(C)c1-c1cncn1C
% activity ([6]; at 1 µM): > 90% | % activity ([6]; at 10 µM): > 80%

Cc1cc([C@@H](C)Nc2ccccc2C(=O)O)c2nc(N3CCOCC3)cc(=O)n2c1 [AZD-6482]
% of control [7]: 100%

COc1cc(Nc2nc(C)cc(-c3cnn4nc(OC)ccc34)n2)cc(C(F)(F)F)c1
% of control [8]: 99% | % of control [9]: 86%

C=CC(=O)Nc1cccc(C(=O)Nc2ccc(Nc3cc(-c4[nH]c(SC)nc4C)ccn3)cc2)c1
% of control ([10]; at 1 µM): 91% | % of control ([10]; at 5 µM): 95%

N#Cc1cccc(-c2c[nH]c3ncnc(N4CCOCC4)c23)c1
% of inhibition [11]: 20%

O[C@H]1CC[C@H](Nc2ncc3nc(Nc4c(F)cc(F)cc4F)n([C@H]4CCOC4)c3n2)CC1
% of control [12]: 100%

CC[C@@H]1[C@H](F)C(=O)N[C@@H]1COc1nccc2cc(C(N)=O)c(OC)cc12 [ZIMLOVISERTIB]
% of inhibition ([13]; at 0.01 µM): 9.7% | % of inhibition ([13]; at 0.04 µM): -2.5% | % of inhibition ([13]; at 0.2 µM): -19.5% | % of inhibition ([13]; at 1 µM): -13.4% | % of inhibition ([13]; at 5 µM): 3.7%

CCN(CC)CCCCNc1ncc2cc(-c3cc(OC)cc(OC)c3)c(NC(=O)NC(C)(C)C)nc2n1
% of control [14]: 100%
